Laboratory results from patent US20060229356A1, “Use of indomethacin and derivatives as broad-spectrum antiviral drugs and corresponding pharmaceutical compositions” (priority 2003, published 2006).
Where “and” joins values, the source holds several entries; their conditions need not be identical. Equal entries are not always repeated.

Key:
[1] = tested on: paramyxovirus (Sendai, SV); assay: Sendai virus (SV) replication in 37RC cells, hemagglutination assay; format: cell-based; conditions: for Virus yield: Table 2, SV; for Reduction of virus production: paramyxovirus, each agent given separately
[2] = tested on: Herpes Simplex type 1 virus (HSV-1); assay: HSV-1 replication in HEp-2 cells, CPE50% assay; format: cell-based, Herpes Simplex virus type 1
[3] = tested on: 37RC cells infected with SV; assay: Cytoprotective effect in SV-infected 37RC cells (FIG. 1); format: cell-based, monkey; conditions: 37RC cells infected with SV for 24 hours, 400 microM INDO
Protocol: (§1) FIGS. 1 and 2 show the cytoprotective effect of INDO. Cells were infected as described in example 1.
FIG. 1A: 37RC cells non infected (control); FIG. 1B: 37RC cells infected with SV for 24 hours non treated (SV); FIG. 1C: 37RC cells infected with SV for 24 hours and treated with 400 microM INDO (SV+INDO).

herpesviruses = conditions: some herpesviruses; cited from earlier work
coxsackie virus = conditions: cited from earlier work
GRP78/BiP = assay: Synthesis of stress protein GRP78/BiP; format: cell-based
poxvirus = conditions: cited from earlier work
[4] = tested on: transcription factor NF-κB; assay: Activation of NF-κB induced by viral infection; format: cell-based; conditions: at the active antiviral concentrations, data not shown
rotavirus (SA-11 strain) = assay: Rotavirus (SA-11) replication in MA104 cells, hemagglutination assay; format: cell-based; conditions: MA104, 24 h, read-out: IC50 (50% reduction of the virus titer)
[5] = tested on: coronavirus (CCoV, S-378 strain); assay: Coronavirus (CCoV) replication in A-72 cells, CPE50% assay; format: cell-based
[6] = tested on: transcription factor HSF (Heat Shock Factor); assay: Activation of HSF (Heat Shock Factor); format: cell-based; conditions: at the active antiviral concentrations, data not shown
[7] = tested on: A-72 cells infected with CCoV; assay: Cytoprotective effect in CCoV-infected A-72 cells (FIG. 2); format: cell-based, canine; conditions: A-72 cells infected with CCoV for 24 hours, 400 microM INDO
Protocol: as §1
FIG. 2A: A-72 cells non infected (control); FIG. 2B: A-72 cells infected with CCoV for 24 hours non treated (CCoV); FIG. 2C: A-72 cells infected with CCoV for 24 hours and treated with 400 microM INDO (CCoV+INDO).

HIV-1 = HIV-1 infection; cited from earlier work
[8] = tested on: Vesicular Stomatitis Virus (VSV); conditions: VSV infection; cited from earlier work
virion = assay: Addition to the virus suspension or during virus adsorption; format: cell-based; conditions: INDO 5-10 mM, any of the viruses indicated
[9] = tested on: influenza A virus (WSN strain); assay: Influenza A virus (WSN) replication in A549 cells, hemagglutination assay; format: cell-based; conditions: for Virus yield: Table 2, WSN; for Decrease of virus production: influenza virus, each agent given separately

For `CCCCC/C=C/C=C1/C(=O)C=C[C@@H]1C/C=C\CCCC(=O)O` [15dx-PGJ2, 15deoxy-Δ^12-14-PGJ2], the Virus yield ([1]; 15dx-PGJ2 alone 1 μM) was 37 % of control and the “Reduction of virus production” value [1] was 63%.

For `Nc1nc2c(ncn2COCCO)c(=O)[nH]1` [ACY, acyclovir], the Virus yield ([2]; Table 2, HSV-1, ACY alone 1 μM) was 7.7 % of control.

For `COc1ccc2c(c1)c(CC(=O)O)c(C)n2C(=O)c1ccc(Cl)cc1` [INDO, Indomethacin], the “Protective effect on cellular damage (cytopathic effect) caused by virus” value [3] is given as “protected from the destructive cytopathic effect”, the “Antiviral effect (literature)” value (herpesviruses) is given as “antiviral effect” and the “Antiviral effect (literature)” value (coxsackie virus) is given as “no antiviral effect or to worsen the infection”. The “Synthesis of endoplasmic reticulum stress protein GRP78/BiP” value (GRP78/BiP) was “observed the synthesis”, the “Antiviral effect (literature)” value (poxvirus) was “no antiviral effect or to worsen the infection” and the “Inhibition of NF-κB activation induced by the viral infection” value [4] was “does not inhibit”. For the same molecule, the IC50 (rotavirus (SA-11 strain)) was less than 25 µM, the Virus yield ([2]; Table 2, HSV-1, INDO alone 25 μM) was 28.2 % of control and 38.1 % of control and the Virus yield ([2]; Table 2, HSV-1, INDO alone 100 μM) was 9.7 % of control. The IC50 ([1]; Respirovirus muris, 24 h, read-out: IC50 (50% reduction of the virus titer)) was 130 µM, the Virus yield ([1]; INDO alone 100 μM) was 50 % of control and 60 % of control and the “Reduction of virus production” value [1] was 40%. The IC50 ([5]; A-72, 24 h, read-out: IC50 (50% reduction of the virus titer)) was less than 50 µM, the inhibition at 50 µM ([5]; A-72, coronavirus, INDO 50 microM, read-out: Inhibition of virus production as compared to control) was greater than 90% and the “Activation of HSF (Heat Shock Factor)” value [6] was “does not activate”. The “Protective effect on cellular damage (cytopathic effect) caused by virus” value [7] was “protected from the destructive cytopathic effect”, the “Antiviral effect (literature)” value (HIV-1) was “antiviral effect” and the “Antiviral effect (literature)” value [8] was “antiviral effect”. For the same molecule, the “Effect on virus replication when added to the virus suspension or during virus adsorption” value (virion) was “no effect”, the “Concentrations non-toxic for the host cell” value (host cell) was 10 to 800 µM and the “Effect at 48 hours after infection” value [9] was “lost its effect”. For the same molecule, the IC50 ([9]; Influenza A virus, WSN, A549, 24 h, read-out: IC50 (50% reduction of the virus titer)) was 400 µM, the Virus yield ([9]; INDO alone 200 μM) was 75 % of control and the Virus yield ([9]; INDO alone 400 μM) was 67 % of control. The “Decrease of virus production” value [9] was “approximately 30%”.

In the case of `CCCCC[C@H](O)/C=C/[C@H]1C=CC(=O)[C@@H]1CCCCCCC(=O)O` [PGA1], the Virus yield ([2]; Table 2, HSV-1, PGA1 alone 25 μM) is reported as 9 % of control.

With `NC(=O)c1ncn([C@@H]2O[C@H](CO)[C@@H](O)[C@H]2O)n1` [RIB, ribavirin] the Virus yield ([9]; RIB alone 50 μM) was 58 % of control.

With `[Cl-].[Cl-].[Zn+2]` [ZnCl2] the Virus yield ([2]; Table 2, HSV-1, ZnCl2 alone 50 μM) was 8.3 % of control, the Virus yield ([1]; ZnCl2 alone 50 μM) was 60 % of control and the Virus yield ([9]; ZnCl2 alone 50 μM) was 67 % of control.

With `CCCCC[C@H](O)C/C=C1/C(=O)C=C[C@@H]1C/C=C\CCCC(=O)O` [Δ^12-PGJ2] the Virus yield ([9]; Δ^12-PGJ2 alone 5 μM) was 67 % of control and the “Decrease of virus production” value [9] was “approximately 30%”.
